Measurements as given in US6939887B2, “Benzimidazolidinone derivatives” (Sumitomo Pharmaceuticals Co., Ltd., priority 2001, dated 2005).
Structures can show the parent of a compound that is named as a salt.

system: pituitary cells (growth hormone release); experiment: GH release promoting activity in cultured rat pituitary cells (GH level of supernatant by RIA); format: cell-based, rat (Wistar/ST); settings: compound concentration 10000 nM, 15 min at 37° C.
Method: Benzimidazolidinone derivatives of the present invention were evaluated for their growth hormone (GH) release promoting activity by reference to the method described in a literature (R. G. Smith et al., Science, 260, 1640 (1993)).
Pituitary glands removed from 7-week-old male Wistar/ST rats were washed three times with HBSS(−) and the tissue was minced into small pieces (ca. 1 mm square) using a pair of scissors. The tissues were transferred to a 15 ml round-bottom centrifuge tube and washed three times with HBSS(−) (10 ml). An enzyme solution (0.1 ml per one pituitary gland) was added and enzymatic digestion was started in a water bath at 37° C. During the process, the mixture was pipetted every 5 minutes and the treatment was continued for ca 20-30 min until the cells were dispersed. The resulting cell suspension was centrifuged at 1200 rpm for 2-3 min at room temperature and the supernatant was discarded. A culture medium (8 ml) was added. Similar procedure was repeated twice and the dispersed cells were washed. The cells were plated in a 96-well plate (1×10^4 cells/100 μl/well) and incubation was started at 37° C. under 5% CO2 atmosphere.
Three days after the start of the culture, the supernatant was discarded and an assay medium was added. The cells were incubated for 1.5 h and washed once with the assay medium. A test compound solution was added and the cells were reacted at 37° C. for 15 min in an incubator under 5% CO2. The supernatant was recovered and the GH level thereof was measured by RIA.
A sample (50 μl) diluted with RIA buffer (1% BSA, 0.1% NaN3 and 25 mM EDTA/PBS (pH 7.6)), [^125I]-labeled GH solution (50 μl, ca. 10,000 cpm), and rabbit antiserum (diluted 1,000-fold) against rat GH (50 μl, Biogenesis Co) were placed in each well of a 96-well plate for RIA (Coster Co) and the mixture was reacted for 3 days at 4° C. Cell membrane fractions containing protein A were added and the mixture was allowed to stand for 20 min and centrifuged. The supernatant was recovered and the precipitates were washed with the RIA buffer. The ^125I amount was measured. The GH level of the sample was calculated from the standard curve drawn using the standard GH.
The composition of the culture medium was DMEM containing 10% horse serum, 2.5% fetal bovine serum, 1% nonessential amino acids, 1% antibiotics. The composition of the assay medium was 25 mM HEPES/culture medium (pH 7.3). The test compound solution was prepared by adding a compound solution (1 μl), adjusted to 1000-fold concentration with DMSO, to an assay medium (1 ml). Collagenase (400 mg), DNase type I (1 mg), and BSA (1 g) were dissolved in a 25 mM HEPES buffer (pH 7.4, 40 ml) containing 0.8% NaCl, 0.037% KCl, 0.9% glucose, 1% streptomycin-penicillin and 0.7 mM Na2HPO4, and 1 mg/ml CaCl2 (226 μl) was added. The resulting solution was adjusted to a final volume of 50 ml by adding a HEPES buffer and sterilized by filtration through a 0.22 μm filter and used as the enzyme solution.
The GH release promoting activity of the compounds of Examples is shown in the following. For the activity, the ratio of GH level of the supernatant in the presence of the test compound (compound concentration 10000 nM) to GH level of supernatant in the absence of the compound (GH level of supernatant in the presence of the compound/GH level of supernatant in the absence of the compound).

Row | Structure (SMILES) | GH release promoting activity = (GH level of supernatant in the presence of the compound)/(GH level of supernatant in the absence of the compound)
1 | CCN(CC)CCn1c(=O)n(Cc2cccc(Cl)c2)c2c(C(F)(F)F)cc(C(N)=O)cc21 [Example 3, 1-(3-chlorobenzyl)-3-[2-(diethylamino)ethyl]-2-oxo-7-(trifluoromethyl)-2,3-dihydro-1H-benzimidazole-5-carboxamide trifluoroacetate] | 1.2
2 | CCN(CC)CCn1c(=O)n(Cc2ccccc2Cl)c2c(C(F)(F)F)cc(C(N)=O)cc21 [Example 5, 1-(2-chlorobenzyl)-3-[2-(diethylamino)ethyl]-2-oxo-7-(trifluoromethyl)-2,3-dihydro-1H-benzimidazole-5-carboxamide trifluoroacetate] | 1.3
3 | CCN(CC)CCn1c(=O)n(-c2ccc(Cl)cc2)c2c(C(F)(F)F)cc(C(N)=O)cc21 [Example 7, 1-(4-chlorophenyl)-3-[2-(diethylamino)ethyl]-2-oxo-7-(trifluoromethyl)-2,3-dihydro-1H-benzimidazole-5-carboxamide trifluoroacetate] | 3.0
4 | CCN(CC)CCn1c(=O)n(-c2ccc(Cl)cc2Cl)c2c(C(F)(F)F)cc(C(N)=O)cc21 [Example 8, 1-(2,4-dichlorophenyl)-3-[2-(diethylamino)ethyl]-2-oxo-7-(trifluoromethyl)-2,3-dihydro-1H-benzimidazole-5-carboxamide trifluoroacetate] | 2.1
5 | CCN(CC)CCn1c(=O)n(Cc2cccc(C(F)(F)F)c2)c2c(C(F)(F)F)cc(C(N)=O)cc21 [Example 9, 3-[2-(diethylamino)ethyl]-2-oxo-7-(trifluoromethyl)-1-[3-(trifluoromethyl)benzyl]-2,3-dihydro-1H-benzimidazole-5-carboxamide trifluoroacetate] | 1.3
6 | CCN(CC)CCn1c(=O)n(Cc2ccccc2C)c2c(C(F)(F)F)cc(C(N)=O)cc21 [Example 16, 3-[2-(diethylamino)ethyl]-1-(2-methylbenzyl)-2-oxo-7-(trifluoromethyl)-2,3-dihydro-1H-benzimidazole-5-carboxamide trifluoroacetate] | 1.0
